# Results from PMC12881674, “Activation of TRPV3 channels in bladder cancer cells stimulates ATP release” (Molecular Pharmacology, 2025).
# Target: T1, mouse TRPV3 (Mus musculus, UniProt Q8K424)
# T1 construct: expressed in transfected cells; host or cells: HEK293
# T1 sequence (Q8K424 1-791): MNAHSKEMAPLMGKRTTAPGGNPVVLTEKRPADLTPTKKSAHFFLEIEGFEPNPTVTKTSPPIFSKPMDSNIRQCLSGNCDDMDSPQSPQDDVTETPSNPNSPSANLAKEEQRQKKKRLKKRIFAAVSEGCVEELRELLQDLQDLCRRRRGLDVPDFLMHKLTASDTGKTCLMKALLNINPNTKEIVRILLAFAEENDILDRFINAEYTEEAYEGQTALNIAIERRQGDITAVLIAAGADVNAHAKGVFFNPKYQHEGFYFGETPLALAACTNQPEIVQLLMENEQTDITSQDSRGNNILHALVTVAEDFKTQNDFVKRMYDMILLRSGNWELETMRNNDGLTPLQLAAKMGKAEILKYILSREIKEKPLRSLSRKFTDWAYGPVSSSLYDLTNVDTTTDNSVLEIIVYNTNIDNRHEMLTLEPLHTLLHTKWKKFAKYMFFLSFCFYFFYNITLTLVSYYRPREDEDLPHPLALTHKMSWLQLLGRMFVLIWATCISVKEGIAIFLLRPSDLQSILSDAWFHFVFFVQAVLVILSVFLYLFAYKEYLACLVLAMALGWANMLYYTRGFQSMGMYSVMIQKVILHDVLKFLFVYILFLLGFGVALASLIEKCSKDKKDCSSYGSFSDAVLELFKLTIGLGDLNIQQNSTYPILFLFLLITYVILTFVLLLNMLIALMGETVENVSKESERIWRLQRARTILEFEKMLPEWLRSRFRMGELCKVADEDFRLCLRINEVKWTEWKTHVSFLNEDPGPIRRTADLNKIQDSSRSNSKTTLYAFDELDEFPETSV
# Experiment: whole-cell patch-clamp recordings in HEKmTRPV3 cells
# Type: cell-based
# Description: Whole-cell patch-clamp recordings were performed at room temperature using an […] amplifier connected to a Digidata 1440A digitizer under the control of the pCLAMP 10 software suite (Molecular Devices). Cells were plated onto PLL-coated glass coverslips 24–48 hours prior to recordings. […] The extracellular buffer consisted of 140 mM NaCl, 5 mM CsCl, 2 mM MgCl2, 1 mM CaCl2, and 10 mM HEPES, adjusted to pH 7.4 with NaOH. Recordings were performed with a liquid junction potential of +3.6 mV, which was not corrected. Voltage ramps ranging from −100 to 100 mV (500-millisecond duration) were applied at 1-second intervals. Series resistance was <15 MΩ and compensated by 70%. Only recordings with stable access resistance and minimal leak currents were included in the analysis. […]
# Fig. 2 Electrophysiological analysis of AV3-1–activated TRPV3 currents in HEKmTRPV3 cells. […] Current amplitudes were recorded using voltage ramps from −100 mV to +100 mV (500-millisecond duration) such as in B and expressed as current density (pA/pF) measured at +100 mV and −100 mV. […] (C) Quantification of current densities (pA/pF) at −100 mV (inward current) and +100 mV (outward current) at the time points (1, 6–8) as indicated in (A). […] Statistical significance was determined using Kruskal-Wallis ANOVA followed by Conover test; ∗P < .05. […]
smiles,measurement,setting,value
COC(=O)C12CN(Cc3ccccc3)CC1(C(=O)OC)CN(Cc1ccccc1)C2 (centres unmarked) [AV3-1],TRPV3 currents evoked by activator,"5 μM AV3-1, voltage ramps -100 to +100 mV",robust TRPV3-like currents
same,reversibility of effect on TRPV3 upon washout,washout of 5 μM AV3-1,fully reversible
